The test system of assay [1] is Trichurus spiralis. Put plainly: MIC on nutrient agar media against soft-rot pathogen. The format is cell-based. Here is the method:
(§1) The synergism was then determined using the method described by Kull et al. (F. C. Kull, P. C. Eismann, H. D. Sylvestrowicz, R. L. Mayer, Applied Microbiology 9, 538 to 541, 1961). Here, the following relationships apply:
(§2) Qa=concentration of substance A which corresponds to the MIC
(§3) Qb=concentration of substance B which corresponds to the MIC
(§4) QA=concentration of substance A in the concentration of A/B which suppresses microbial growth
(§5) QB=concentration of substance B in the concentration of A/B which suppresses microbial growth
(§6) SI=1 means the activities are additive
Various concentrations of prochloraz (A), tebuconazole (B) and mixtures of the two active compounds mentioned (AB) were tested against the soft-rot pathogen Trichurus spiralis on nutrient agar media. The minimum inhibitory concentration (MIC) refers to the value of the active compound or the active compound mixture in question where no growth could be observed.

In assay [2] the test system is Coriolus versicolor. Put plainly: MIC, radial hyphal growth on malt extract peptone nutrient agar. The format is cell-based. Conditions: Trametes versicolor. As for the experimental part: as §1, §2, §3, §4, §5, §6
Various concentrations of prochloraz (A), tebuconazole (B) and mixtures (AB) of the two active compounds mentioned were tested against the wood-destroying Basidiomycetes Coriolus versicolor. Mycelium pieces were punched out of a colony of the wood-destroying organism and incubated at 26° C. on a nutrient agar which contained malt extract peptone. The radial growth of the hypha with and without added active compound was then compared. The minimum inhibitory concentration (MIC) stated below is the lowest concentration of active compound at which the radial growth is suppressed completely.

Assay [3] relates to microorganisms in biologically active soil. Put plainly: Soil burial of treated cotton sailcloth (DIN ENV 807), tear resistance. The conditions noted are these: cloth drenched with 800 ppm single active compound in ethanol; 4 weeks in biologically active soil. Here is the method:
Untreated cotton sailcloth consisting of cellulose (500 g/m^2) was drenched with a solution of 800 ppm of prochloraz (A) and 800 ppm of tebuconazole (B) and a mixture (AB) comprising 200 ppm of prochloraz and 200 ppm of tebuconazole in ethanol. The samples were dried at 23° C. and 50% relative atmospheric humidity for 7 days and incorporated into biologically active soil according to DIN ENV 807. After 4 weeks, tear resistance of the cotton cloth was determined as a measure for the protection against destruction by microorganisms achieved by the active compounds.

For assay [4], the system named is blueing fungi. The conditions noted are these: J. A. Drysdale et al., New Zealand Journal of Forestry Science 1982; cited from earlier work.

Molecules are shown by their SMILES. Where two headings read alike, the source gives them in different places.

In the case of `CC(C)(C)C(O)(CCc1ccc(Cl)cc1)Cn1cncn1` (stereo not shown) [B, tebuconazole], the MIC stood at 200 µg/mL in assay [1] (nutrient agar, concentration where no growth could be observed, read-out: MIC) and 0.3 µg/mL in assay [2] (Coriolus versicolor, 26° C., malt extract peptone agar, lowest concentration at which radial growth is suppressed completely, read-out: MIC). In assay [3], the “tear resistance of the cotton cloth” value was “easy to tear”.
`CCCN(CCOc1c(Cl)cc(Cl)cc1Cl)C(=O)n1ccnc1` [A, N-propyl-N-[2-(2,4,6-trichlorophenoxy)ethyl]imidazole-1-carboxamide]: the MIC in assay [1] is 5 µg/mL; in assay [2], 6 µg/mL. Further, the “tear resistance of the cotton cloth” value in assay [3] is “easy to tear”. Moreover, the “activity against blueing fungi” value in assay [4] is given as “insufficiently active”.

A word on the MIC: it is the least concentration at which growth counts as inhibited.

The values above are taken from patent US20090215845A1, “Fungicidal mixtures” (priority 2005, published 2009).
